Results: PubChem BioAssay (NCI)
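All cell lines were grown in 96-well plates and treated with compound for 48 hours. GI50 = concentration required for 50% inhibition of growth. At the TGI there is no net growth.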

Tests used:
Experiment in all cases: inhibition of tumour cell growth, NCI panel, 48 h
[1] = tested on: OVCAR-5 ovarian
[2] = tested on: A498 renal
[3] = tested on: RXF 393 renal
[4] = tested on: HCC-2998 colon
[5] = tested on: SK-MEL-28 melanoma
[6] = tested on: ACHN renal
[7] = tested on: OVCAR-8 ovarian
[8] = tested on: SK-MEL-5 melanoma
[9] = tested on: T-47D breast
[10] = tested on: EKVX NSCLC
[11] = tested on: SF-268 CNS
[12] = tested on: MALME-3M melanoma
[13] = tested on: OVCAR-4 ovarian
[14] = tested on: K-562 leukemia
[15] = tested on: RPMI-8226 leukemia
[16] = tested on: BT-549 breast
[17] = tested on: HS 578T breast
[18] = tested on: SN12C renal
[19] = tested on: UACC-257 melanoma
[20] = tested on: HOP-92 NSCLC
[21] = tested on: CAKI-1 renal
[22] = tested on: SF-295 CNS
[23] = tested on: HOP-62 NSCLC
[24] = tested on: LOX IMVI melanoma
[25] = tested on: OVCAR-3 ovarian
[26] = tested on: SNB-75 CNS
[27] = tested on: SW-620 colon
[28] = tested on: SR leukemia
[29] = tested on: HCT-15 colon
[30] = tested on: DU-145 prostate
[31] = tested on: MDA-MB-231 breast
[32] = tested on: MOLT-4 leukemia
[33] = tested on: MCF7 breast
[34] = tested on: U251 CNS
[35] = tested on: COLO 205 colon
[36] = tested on: KM12 colon
[37] = tested on: UACC-62 melanoma
[38] = tested on: NCI-H522 lung
[39] = tested on: HCT-116 colon
[40] = tested on: CCRF-CEM leukemia
[41] = tested on: NCI/ADR-RES ovarian
[42] = tested on: HL-60(TB) leukemia
[43] = tested on: UO-31 renal
[44] = tested on: NCI-H23 lung
[45] = tested on: SK-MEL-2 melanoma
[46] = tested on: SF-539 CNS
[47] = tested on: IGROV1 ovarian
[48] = tested on: A549 NSCLC
[49] = tested on: MDA-MB-435
[50] = tested on: NCI-H460 lung
[51] = tested on: PC-3 prostate
[52] = tested on: M14 melanoma
[53] = tested on: NCI-H226 lung
[54] = tested on: 786-0 renal
[55] = tested on: HT29 colon
[56] = tested on: TK-10 renal
[57] = tested on: MDA-N
[58] = tested on: SK-OV-3 ovarian
[59] = tested on: SNB-19 CNS

For `COc1cccc2c(=O)c3c(sc12)c(NCCN(C)C)nc1ccccc13`, the GI50 [1] was 1.65 µM, the TGI [1] was 3.3 µM and the GI50 [2] was 1.49 µM. For the same compound, the TGI [2] was 2.93 µM, the GI50 [3] was 1.29 µM and the TGI [3] was 2.65 µM. It also gave a GI50 [4] of 1.47 µM, a TGI [4] of 3.02 µM and a GI50 [5] of 1.92 µM. It also gave a TGI [5] of 3.49 µM, a GI50 [6] of 1 µM and a TGI [6] of 2.22 µM. The GI50 [7] was 1.26 µM, the TGI [7] was 2.93 µM and the GI50 [8] was 1.71 µM. For the same compound, the TGI [8] was 3.17 µM, the GI50 [9] was 1.65 µM and the TGI [9] was 3.98 µM. It also gave a GI50 [10] of 1.51 µM, a TGI [10] of 2.99 µM and a GI50 [11] of 1.6 µM. For the same compound, the TGI [11] was 3.57 µM, the GI50 [12] was 1.83 µM and the TGI [12] was 3.59 µM. The GI50 [13] was 1.57 µM, the TGI [13] was 3.68 µM and the GI50 [14] was 1.02 µM. For the same compound, the TGI [14] was 2.8 µM, the GI50 [15] was 1.36 µM and the TGI [15] was 3.17 µM. For the same compound, the GI50 [16] was 2.31 µM, the TGI [16] was 10.1 µM and the GI50 [17] was 1.69 µM. For the same compound, the TGI [17] was 4.81 µM, the GI50 [18] was 1.15 µM and the TGI [18] was 2.58 µM. It also gave a GI50 [19] of 1.72 µM, a TGI [19] of 3.5 µM and a GI50 [20] of 1.03 µM. It also gave a TGI [20] of 3.53 µM, a GI50 [21] of 1.36 µM and a TGI [21] of 3.12 µM. The GI50 [22] was 1.65 µM, the TGI [22] was 3.42 µM and the GI50 [23] was 1.2 µM. For the same compound, the TGI [23] was 2.66 µM, the GI50 [24] was 1.33 µM and the TGI [24] was 2.76 µM. It also gave a GI50 [25] of 1.61 µM, a TGI [25] of 3.22 µM and a GI50 [26] of 1.47 µM. It also gave a TGI [26] of 8.53 µM, a GI50 [27] of 0.76 µM and a TGI [27] of 2.3 µM. It also gave a GI50 [28] of 0.612 µM, a TGI [28] of 2.45 µM and a GI50 [29] of 1.06 µM. The TGI [29] was 2.41 µM, the GI50 [30] was 1.68 µM and the TGI [30] was 3.17 µM. For the same compound, the GI50 [31] was 1.34 µM, the TGI [31] was 2.87 µM and the GI50 [32] was 0.398 µM. The TGI [32] was 1.66 µM, the GI50 [33] was 1.25 µM and the TGI [33] was 2.7 µM. For the same compound, the GI50 [34] was 1.29 µM, the TGI [34] was 2.74 µM and the GI50 [35] was 1.2 µM. For the same compound, the TGI [35] was 2.86 µM, the GI50 [36] was 1.59 µM and the TGI [36] was 3.1 µM. The GI50 [37] was 1.72 µM, the TGI [37] was 3.24 µM and the GI50 [38] was 1.36 µM. It also gave a TGI [38] of 3.02 µM, a GI50 [39] of 0.538 µM and a TGI [39] of 1.85 µM. It also gave a GI50 [40] of 1.34 µM, a TGI [40] of 2.97 µM and a GI50 [41] of 1.31 µM. The TGI [41] was 3.03 µM, the GI50 [42] was 1.64 µM and the TGI [42] was 3.42 µM. For the same compound, the GI50 [43] was 0.461 µM, the TGI [43] was 2 µM and the GI50 [44] was 1.51 µM. The TGI [44] was 3.16 µM, the GI50 [45] was 1.84 µM and the TGI [45] was 3.82 µM. For the same compound, the GI50 [46] was 1.61 µM, the TGI [46] was 3.01 µM and the GI50 [47] was 1.19 µM. For the same compound, the TGI [47] was 2.7 µM, the GI50 [48] was 1.22 µM and the TGI [48] was 2.8 µM. It also gave a GI50 [49] of 1.71 µM, a TGI [49] of 3.2 µM and a GI50 [50] of 1.34 µM. For the same compound, the TGI [50] was 2.88 µM, the GI50 [51] was 1.34 µM and the TGI [51] was 3.03 µM. It also gave a GI50 [52] of 1.56 µM, a TGI [52] of 2.94 µM and a GI50 [53] of 1.75 µM. The TGI [53] was 4.03 µM, the GI50 [54] was 1.65 µM and the TGI [54] was 3.16 µM. For the same compound, the GI50 [55] was 0.648 µM and the TGI [55] was 2.12 µM.

With `O=C(CC(C(=O)c1cccs1)c1ccsc1)c1ccco1` (centres undefined) the TGI [1] was over 100 µM, the TGI [2] was 64 µM and the TGI [3] was 49.7 µM. The TGI [4] was over 100 µM, the TGI [5] was over 100 µM and the TGI [6] was 99.2 µM. It also gave a TGI [56] of over 100 µM, a TGI [7] of over 100 µM and a TGI [8] of over 100 µM. It also gave a TGI [9] of 80.3 µM, a TGI [10] of over 100 µM and a TGI [11] of 74.2 µM. For the same compound, the TGI [15] was over 100 µM, the TGI [17] was 47 µM and the TGI [18] was over 100 µM. It also gave a TGI [19] of over 100 µM, a TGI [20] of over 100 µM and a TGI [21] of 77.3 µM. The TGI [22] was over 100 µM, the TGI [23] was over 100 µM and the TGI [24] was over 100 µM. For the same compound, the TGI [57] was over 100 µM, the TGI [25] was over 100 µM and the TGI [26] was 84.4 µM. The TGI [27] was over 100 µM, the TGI [28] was over 100 µM and the TGI [29] was 49.5 µM. For the same compound, the TGI [30] was over 100 µM, the TGI [32] was over 100 µM and the TGI [33] was 42.3 µM. The TGI [34] was 49.6 µM, the TGI [35] was 95.5 µM and the TGI [36] was 42.7 µM. It also gave a TGI [37] of 62.1 µM, a TGI [38] of 54.1 µM and a TGI [39] of 56.5 µM. The TGI [40] was 50.1 µM, the TGI [58] was over 100 µM and the TGI [41] was 43.6 µM. For the same compound, the TGI [42] was 41.3 µM, the TGI [43] was 59 µM and the TGI [44] was 49.7 µM. It also gave a TGI [46] of 98.2 µM, a TGI [47] of over 100 µM and a TGI [48] of 42.9 µM. The TGI [49] was 40.6 µM, the TGI [50] was 81.9 µM and the TGI [52] was 43.5 µM. The TGI [53] was over 100 µM, the TGI [54] was over 100 µM and the TGI [55] was 29.7 µM.

Compound `CN(C)CCNC(=O)c1cc(-c2nccn2C)nc2ccccc12` has a TGI [1] of over 100 µM, a TGI [2] of over 100 µM and a TGI [3] of over 100 µM. The TGI [4] was over 100 µM, the TGI [6] was over 100 µM and the TGI [56] was over 100 µM. For the same compound, the TGI [7] was over 100 µM, the TGI [8] was over 100 µM and the TGI [9] was over 100 µM. It also gave a TGI [10] of over 100 µM, a TGI [11] of over 100 µM and a TGI [12] of over 100 µM. It also gave a TGI [14] of over 100 µM, a TGI [15] of over 100 µM and a TGI [16] of over 100 µM. It also gave a TGI [18] of over 100 µM, a TGI [59] of over 100 µM and a TGI [19] of over 100 µM. It also gave a TGI [20] of over 100 µM, a TGI [21] of over 100 µM and a TGI [23] of over 100 µM. It also gave a TGI [24] of over 100 µM, a TGI [57] of over 100 µM and a TGI [26] of over 100 µM. It also gave a TGI [27] of over 100 µM, a TGI [28] of over 100 µM and a TGI [29] of over 100 µM. It also gave a TGI [30] of over 100 µM, a TGI [31] of over 100 µM and a TGI [32] of over 100 µM. It also gave a TGI [33] of over 100 µM, a TGI [34] of over 100 µM and a TGI [35] of over 100 µM. The TGI [36] was over 100 µM, the TGI [37] was over 100 µM and the TGI [38] was over 100 µM. It also gave a TGI [39] of over 100 µM, a TGI [40] of over 100 µM and a TGI [41] of over 100 µM. For the same compound, the TGI [42] was over 100 µM, the TGI [43] was over 100 µM and the TGI [44] was over 100 µM. For the same compound, the TGI [45] was over 100 µM, the TGI [46] was over 100 µM and the TGI [47] was over 100 µM. The TGI [48] was over 100 µM, the TGI [49] was over 100 µM and the TGI [50] was over 100 µM. The TGI [51] was over 100 µM, the TGI [52] was over 100 µM and the TGI [53] was over 100 µM. The TGI [54] was over 100 µM and the TGI [55] was over 100 µM.
